Source: paper PMC5592639 (ACS combinatorial science, 2016)

Experiments:
Format in all cases: cell-based
[1] = test system: normal human fibroblasts NHFB; assay: Cytotoxicity against normal human fibroblasts; conditions: Fibroblast
[2] = test system: H460 (human non-small cell lung carcinoma cells); assay: Cytotoxicity against H460; conditions: NCI-H460
[3] = test system: H460TaxR (paclitaxel-resistant human non-small cell lung carcinoma cells); assay: Cytotoxicity against H460TaxR; conditions: H460/TaxR

CC(=O)O[C@H]1C(=O)[C@@]2(C)[C@H]([C@H](OC(=O)c3ccccc3)[C@]3(O)C[C@H](OC(=O)[C@H](O)[C@@H](NC(=O)c4ccccc4)c4ccccc4)C(C)=C1C3(C)C)[C@]1(OC(C)=O)CO[C@@H]1C[C@@H]2O [PTX, paclitaxel]
EC50 [1]: 50 ± 30 nM | EC50 [2]: 6 ± 2 nM | EC50 [3]: 800 ± 400 nM
